Test results: the supplement of paper PMC10307832

Columns and labels:
Test in all cases: relative viability (nuclei count vs DMSO), 5 days (fraction); higher = more cells survive
Seliciclib + Lapatinib = compound: CC[C@H](CO)Nc1nc(NCc2ccccc2)c2ncn(C(C)C)c2n1 [Seliciclib] + CS(=O)(=O)CCNCc1ccc(-c2ccc3ncnc(Nc4ccc(OCc5cccc(F)c5)c(Cl)c4)c3c2)o1 [Lapatinib] (partner 2 µM)
Procedure, shortened: (§1)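 Cells from lung cancer lines were seeded into 1536-well plates and, one day later, dosed by pin tool. Treatments were either a single drug or a fixed dose of an anchor drug with five library-drug doses (not always all listed) in √10 steps. After 5 days, nuclei were stained in a one-step fixation (final 0.05% Triton X-100, 1% formaldehyde, 1 ug/ml Hoechst) and counted on 4× images, and relative viability is the treated-to-vehicle nuclei ratio, as the median of duplicate plates.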

Seliciclib + Crizotinib = compound: CC[C@H](CO)Nc1nc(NCc2ccccc2)c2ncn(C(C)C)c2n1 [Seliciclib] + C[C@@H](Oc1cc(-c2cnn(C3CCNCC3)c2)cnc1N)c1c(Cl)ccc(F)c1Cl [Crizotinib] (partner 1 µM)
Procedure, shortened: as §1

Seliciclib + Dasatinib = compound: CC[C@H](CO)Nc1nc(NCc2ccccc2)c2ncn(C(C)C)c2n1 [Seliciclib] + Cc1nc(Nc2ncc(C(=O)Nc3c(C)cccc3Cl)s2)cc(N2CCN(CCO)CC2)n1 [Dasatinib] (partner 0.075 µM)
Procedure, shortened: as §1

Seliciclib + Pemetrexed = compound: CC[C@H](CO)Nc1nc(NCc2ccccc2)c2ncn(C(C)C)c2n1 [Seliciclib] + Nc1nc2[nH]cc(CCc3ccc(C(=O)N[C@@H](CCC(=O)O)C(=O)O)cc3)c2c(=O)[nH]1 [Pemetrexed] (partner 0.2 µM)
Procedure, shortened: as §1

| Cell Line | relative viability (Seliciclib + Lapatinib; first compound 0.08 µM) | relative viability (Seliciclib + Lapatinib; first compound 0.253 µM) | relative viability (Seliciclib + Lapatinib; first compound 0.8 µM) | relative viability (Seliciclib + Lapatinib; first compound 2.53 µM) | relative viability (Seliciclib + Lapatinib; first compound 8 µM) | relative viability (Seliciclib + Crizotinib; first compound 0.08 µM) | relative viability (Seliciclib + Crizotinib; first compound 0.253 µM) | relative viability (Seliciclib + Crizotinib; first compound 0.8 µM) | relative viability (Seliciclib + Crizotinib; first compound 2.53 µM) | relative viability (Seliciclib + Crizotinib; first compound 8 µM) | relative viability (Seliciclib + Dasatinib; first compound 0.08 µM) | relative viability (Seliciclib + Dasatinib; first compound 0.8 µM) | relative viability (Seliciclib + Dasatinib; first compound 2.53 µM) | relative viability (Seliciclib + Dasatinib; first compound 8 µM) | relative viability (Seliciclib + Pemetrexed; first compound 0.08 µM) | relative viability (Seliciclib + Pemetrexed; first compound 0.253 µM) | relative viability (Seliciclib + Pemetrexed; first compound 0.8 µM) | relative viability (Seliciclib + Pemetrexed; first compound 2.53 µM) | relative viability (Seliciclib + Pemetrexed; first compound 8 µM) | relative viability (Seliciclib + Dasatinib; first compound 0.253 µM) |
| --- | --- | --- | --- | --- | --- | --- | --- | --- | --- | --- | --- | --- | --- | --- | --- | --- | --- | --- | --- | --- |
| NCI-H647 | 1.25 | 1.11 | 1.07 | 1.28 | 1.01 | 1.07 | 1.01 | 1.04 | 1.29 | 0.852 | 0.225 | 0.209 | 0.166 | 0.189 | 0.2 | 0.151 | 0.174 | 0.179 | 0.196 |  |
| A-427 | 1.03 | 1.08 | 1.13 | 1.02 | 1.01 | 0.833 | 0.924 | 0.795 | 0.905 | 0.785 | 0.612 | 0.687 | 0.735 | 0.738 | 1.01 | 1.01 | 1.03 | 0.963 | 0.917 | 0.691 |
| COR-L 105 | 0.367 | 0.347 | 0.416 | 0.311 | 0.279 | 0.846 | 0.698 | 0.698 | 0.806 | 0.6 | 0.377 | 0.324 | 0.311 | 0.37 | 0.98 | 1.09 | 1.21 | 1.09 | 1.01 | 0.405 |
| NCI-H2126 | 0.698 | 0.656 | 0.737 | 0.552 | 0.613 | 0.988 | 0.979 | 0.965 | 0.992 | 0.861 | 0.671 | 0.557 | 0.334 | 0.501 | 0.631 | 0.683 | 0.682 | 0.515 | 0.542 | 0.598 |
| NCI-H460 | 0.895 | 1.04 | 0.922 | 1.34 | 0.826 | 0.787 | 0.821 | 0.837 | 1.36 | 0.722 | 0.524 | 0.357 | 0.288 | 0.363 | 0.0625 | 0.0553 | 0.0625 | 0.0593 | 0.0753 | 0.391 |
| SK-LU-1 | 0.847 | 0.971 | 0.812 | 0.775 | 0.666 | 0.874 | 0.987 | 1.03 | 0.892 | 0.688 | 0.173 | 0.183 | 0.142 | 0.141 | 0.992 | 1.08 | 1.04 | 0.952 | 0.597 | 0.184 |
| NCI-H322M | 0.67 | 0.641 | 0.509 | 0.443 | 0.457 | 0.85 | 1.06 | 0.839 | 1.06 | 0.554 | 0.257 | 0.263 | 0.232 | 0.219 | 0.615 | 0.716 | 0.564 | 0.636 | 0.619 | 0.267 |
| EKVX | 0.197 | 0.473 | 0.18 | 0.166 | 0.216 | 0.743 | 1.14 | 0.877 | 1.11 | 0.817 | 0.53 | 0.573 | 0.47 | 0.493 | 0.368 | 0.37 | 0.354 | 0.379 | 0.472 | 0.55 |
| NCI-H1734 | 1.12 | 0.974 | 1.08 | 0.955 | 0.945 | 0.63 | 0.576 | 0.622 | 0.683 | 0.533 | 0.488 | 0.493 | 0.295 | 0.335 | 0.417 | 0.35 | 0.432 | 0.448 | 0.416 | 0.426 |
| SK-MES-1 | 0.476 | 0.397 | 0.404 | 0.489 | 0.446 | 1 | 1 | 0.891 | 0.96 | 0.914 | 0.395 | 0.386 | 0.231 | 0.344 | 1 | 1.17 | 0.932 | 0.862 | 0.708 | 0.504 |
| NCI-H520 | 0.858 | 0.727 | 0.831 | 0.933 | 0.674 | 0.85 | 0.552 | 0.638 | 0.921 | 0.589 | 0.167 | 0.258 | 0.219 | 0.178 | 0.535 | 0.627 | 0.657 | 0.654 | 0.619 |  |
| EPLC-272H | 0.814 | 0.861 | 0.805 | 0.913 | 0.847 | 0.88 | 0.729 | 0.746 | 0.903 | 0.636 | 0.329 | 0.408 | 0.183 | 0.266 | 0.326 | 0.357 | 0.274 | 0.329 | 0.229 | 0.298 |
| UMC-11 | 1.02 | 0.981 | 1.09 | 0.96 | 0.824 | 0.654 | 0.558 | 0.672 | 0.712 | 0.404 | 0.517 | 0.491 | 0.507 | 0.458 | 0.741 | 0.753 | 0.789 | 0.78 | 0.594 | 0.52 |
| NCI-H1792 | 0.947 | 0.889 | 0.855 | 0.776 | 0.846 | 0.837 | 1.01 | 0.82 | 0.873 | 0.919 | 0.754 | 0.766 |  | 0.743 | 0.795 | 0.694 | 0.82 |  | 0.868 | 0.788 |
| NCI-H1993 | 0.845 | 0.848 | 0.838 | 0.773 | 0.797 | 0.769 | 0.803 | 0.768 | 0.849 | 0.727 | 0.589 | 0.521 | 0.508 | 0.435 | 0.601 | 0.597 | 0.608 | 0.507 | 0.456 | 0.478 |
| NCI-H596 | 0.969 | 0.831 | 1.1 | 1.21 | 0.939 | 0.959 | 0.759 | 0.981 | 1.05 | 0.988 | 0.658 | 0.594 | 0.606 | 0.515 | 0.484 |  | 0.534 | 0.557 | 0.51 |  |
| NCI-H1563 | 1.03 | 0.842 | 0.957 | 0.851 | 0.845 | 0.832 | 0.73 | 0.889 | 0.899 | 0.836 | 0.536 | 0.503 | 0.416 | 0.428 | 0.8 | 0.716 | 0.85 | 0.698 | 0.668 | 0.525 |
| HCC-827 | 0.208 | 0.246 | 0.203 | 0.225 | 0.188 | 0.909 | 0.914 | 0.911 | 0.931 | 0.839 | 0.359 | 0.258 | 0.324 | 0.236 | 0.251 | 0.241 | 0.258 | 0.297 | 0.258 | 0.298 |
| NCI-H2228 | 1.07 | 1.35 | 1.02 | 1.2 | 0.847 | 0.505 | 0.414 | 0.383 | 0.672 | 0.396 | 0.581 | 0.481 | 0.514 | 0.368 | 0.325 | 0.326 | 0.337 | 0.34 | 0.344 | 0.488 |
| EMC-BAC-2 | 0.891 | 0.847 | 0.953 | 0.666 | 0.781 | 0.735 | 0.744 | 0.824 | 0.728 | 0.534 | 0.305 | 0.399 | 0.218 | 0.277 | 0.417 | 0.476 | 0.547 | 0.468 | 0.508 | 0.288 |
| NCI-H23 | 0.97 | 1.08 | 1.19 | 0.657 | 0.851 | 0.454 | 0.427 | 0.432 | 0.42 | 0.48 | 0.855 | 0.756 | 0.296 | 0.643 | 0.715 | 0.72 | 0.619 | 0.337 | 0.489 | 0.785 |
| RERF-LC-KJ | 0.852 | 0.783 | 0.913 | 0.928 | 0.788 | 0.803 | 0.787 | 0.785 | 0.85 | 0.786 | 0.908 | 0.902 | 0.627 | 0.617 | 0.474 | 0.54 | 0.488 | 0.471 | 0.441 | 0.841 |
| NCI-H1944 | 0.842 | 0.788 | 0.859 | 0.619 | 0.449 | 1.09 | 1.16 | 0.931 | 0.996 | 0.714 | 0.242 | 0.208 | 0.17 | 0.205 | 0.575 | 0.634 | 0.453 | 0.608 | 0.428 | 0.198 |
| LC-2-ad | 0.948 | 1.15 | 0.895 | 0.829 | 0.857 | 0.442 | 0.456 | 0.479 | 0.46 | 0.404 | 0.638 | 0.63 | 0.326 | 0.459 | 0.264 | 0.25 | 0.285 | 0.279 | 0.248 | 0.802 |
| HCC-15 | 0.865 | 0.963 | 0.758 | 0.792 | 0.652 | 0.798 | 0.856 | 0.806 | 0.869 | 0.599 | 0.645 | 0.461 | 0.512 | 0.448 | 0.221 | 0.223 | 0.219 | 0.218 | 0.226 | 0.633 |
| NCI-H2405 | 1.11 | 0.851 | 1.05 | 0.919 | 0.902 | 0.755 | 0.841 | 0.807 | 0.877 | 0.794 | 0.211 | 0.197 | 0.171 | 0.212 | 1.05 | 1.23 | 1.07 | 0.825 | 0.83 | 0.219 |
| LXF-289 | 0.908 | 1.04 | 0.806 | 0.891 | 0.791 | 0.82 | 0.871 | 0.779 | 0.835 | 0.638 | 0.245 | 0.248 | 0.128 | 0.221 | 0.883 | 1.04 | 0.81 | 0.932 | 0.842 | 0.202 |
